Assays:
[1] = test system: Jurkat cells; assay: Measurement of cell proliferation (Jurkat cell), XTT assay; format: cell-based; settings: Homo sapiens, Jurkat; for inhibition at 1 µM: compound at 1 uM, read-out: % inh Jurkat_cells @ 1 uM (%); for EC50: 72 h, XTT cell viability
Procedure: See also Roehm, N et al [1991] An improved colorimetric assay for cell proliferation and viability utilizing the tetrazolium salt XTT. J. Immunol. Methods 142:257-265.
Culture Jurkat cells in T-25 flasks at a density of 0.2×10^6/ml 2-3 days before the day of experiment set up.
Centrifuge Jurkat T-cell suspension at 1200 rpm for 10 minutes and resuspend cells again in fresh RPMI medium with 10% FBS.
Count the cells and dilute suspension to a density of 2×10^6 cells/ml. Seed 50 μL of this suspension in each well of a 96 well plate (100,000 cells per well). Keep the edges of the plate empty to avoid evaporation.
Serially dilute DMSO stocks of compounds to get different concentrations for an EC50 curve. 50 μL of compound diluted in media (2× concentration required in well) is added to each well. DMSO concentration should be kept constant at 0.25-0.5% for all wells.
Typically, for all compounds with IC50<1 μM, compound concentration can start at 10 μM followed by half log dilutions for a total of 8-10 concentrations. Each concentration has to be tested in triplicate.
Include controls such as cells without compound (with same DMSO concentration as compound wells), and media control
Incubate the 96 well plate in a CO2 incubator at 37° C. for 72 hrs before determining cell viability using XTT assay
XTT assay: to each well, add 50 μL of 1 mg/ml XTT solution with 20 μl of PMS/mL. Read the plates after 2 hours at 465 nm using the spectrophotometer. XTT reading for media without cells is used as background reading.
Calculate % cell viability assuming that the cells without compound are 100% viable.
Plot % cell viability as a function of concentration and determine EC50 by using software such as Graph Pad Prism to fit the curve.

[2] = target: DHODH (Homo sapiens (Human), UniProt Q02127); assay: DHODH activity assay (coupled enzyme assay, DCIP reduction, absorbance at 610 nm); format: biochemical; settings: for inhibition at 10 µM: compound at 10 uM, read-out: inh @ 10 uM hDHODH (%)
Procedure: The DHODH activity assay is a coupled enzyme assay in which oxidation of DHO and subsequent reduction of ubiquinone are stoichiometrically equivalent to the reduction of DCIP ([…]). The reduction of DCIP is accompanied by a loss of absorbance at 610 nm.
Buffer Preparation: 50 mM tris HCl, 150 mM KCl, and pH 8.0, 0.8% triton.
5 μL of Dimethyl sulfoxide or a compound of formula I in DMSO solution was added to the wells of a 96 well plate. Compounds of formula I were measured at 10 μM.
Protein along with buffer was added, so that the total volume including the DMSO was 87 μL. Compound and protein were incubated for half an hour at room temperature after mixing. 5 μL of 20 mM solution of L-Dihydroorotic acid, 5 μL of 2 mM solution of Decylubiquinone and 3 μL of 2 mM solution of 2,6-Dichloroindophenol sodium salt hydrate were added to the above solution (total assay volume 100 μL). The mixture was stirred for 2 min and absorbance was recorded at every 10 min at 610 nanometers.
Percent Inhibition is Calculated as Follows
Positive control contains DMSO, buffer, enzyme and substrates
No Enzyme reaction contains DMSO, buffer and substrates
IC50 determination: • A 2 mM DMSO stock of the compound of formula I to be examined was prepared. ⅓rd dilutions were made as follows:
5 μL of each stock of compound of formula I (solution indicated in column 4 of table) was used for each 100 μL assay. Therefore, 5 μL of the 2 mM stock provided 100 μL of 100 μM solution of compound of formula I, when made up with buffer, protein and substrate. See also: Ulrich et al. (2001) Eur. J. Biochem. 268, 1861-1868.

DHODH, sequence (Q02127 whole entry): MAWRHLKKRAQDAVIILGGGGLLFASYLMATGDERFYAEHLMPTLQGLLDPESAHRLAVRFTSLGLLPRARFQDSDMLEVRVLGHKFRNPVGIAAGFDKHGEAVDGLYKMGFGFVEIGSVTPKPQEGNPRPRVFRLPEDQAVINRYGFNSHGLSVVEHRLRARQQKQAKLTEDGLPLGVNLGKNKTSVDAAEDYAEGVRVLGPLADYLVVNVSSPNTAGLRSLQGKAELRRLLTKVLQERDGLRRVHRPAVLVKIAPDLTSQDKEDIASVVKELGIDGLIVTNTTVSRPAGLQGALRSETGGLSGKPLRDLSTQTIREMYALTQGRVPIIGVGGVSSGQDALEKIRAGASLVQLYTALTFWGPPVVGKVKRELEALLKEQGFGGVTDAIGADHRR

Structure (SMILES) | inhibition at 1 µM [1] | IC50 [2] | inhibition at 10 µM [2] | EC50 [1]
O=C(O)c1cccc2[nH]c(-c3c(F)c(F)c(-c4ccc(F)cc4)c(F)c3F)nc12 [I133] | 54.7% | 808 nM | 101% | 
O=C(O)c1cccc2[nH]c(-c3ccc(N4CCCCCC4=O)cc3)nc12 [I81, 2-[4-(2-Oxo-azepan-1-yl)-phenyl]-1H-benzoimidazole-4-carboxylic acid] | 6.7% |  | 17.9% | 
Cc1cc(C(=O)O)c2c(c1)nc(-c1c(F)c(F)c(-c3ccccc3)c(F)c1F)n2C [I123] | 111% | 3 nM | 105% | 41 nM
O=C(O)c1cc(Br)cc2[nH]c(-c3ccc(-c4ccccc4)cc3)nc12 [I6] |  | 574 nM | 96.7% | 388 nM
Cc1cc(C(=O)O)c2nc(-c3ccc(-c4cccc(O)c4)cc3)[nH]c2c1 [I116] | 59% | 862 nM | 78% | 
O=C(O)c1cccc2[nH]c(-c3ccc(-c4ccc(CO)cc4)cc3)nc12 [I173] | 44% |  | 80% | 
Cc1cc(C(=O)O)c2nc(-c3ccc(-c4ccc(Oc5ccc(C=O)cc5)cc4)cc3)[nH]c2c1 [I135] | 21.8% | 1590 nM | 65.1% | 
Cc1cc(C(=O)O)c2[nH]c(-c3ccc(-c4ccc(CN(C)C)cc4)cc3)nc2c1 [I161] | 9.7% |  | 43.3% | 
O=C(O)c1cccc2[nH]c(-c3ccc(-c4ccc(OCc5cccnc5)cc4)cc3)nc12 [I184] | 25.4% |  | 53.3% | 
N#Cc1ccc(Oc2ccc(-c3nc4cccc(C(=O)O)c4[nH]3)cc2)cc1 [I77, 2-[4-(4-Cyano-phenoxy)-phenyl]-3H-benzoimidazole-4-carboxylic acid] | 11.5% |  | 34.6% | 
Cc1cc(C(=O)OCCO)c2[nH]c(-c3c(F)c(F)c(-c4ccccc4)c(F)c3F)nc2c1 [I156] | 31.4% |  | 69.1% | 
Cn1cc(-c2ccc(-c3nc4cccc(C(=O)O)c4[nH]3)cc2)cn1 [I186] | 13.5% |  | 31.9% | 
Cc1cc(C(=O)O)c2[nH]c(-c3ccc(-c4ccc(O)c(O)c4)cc3)nc2c1 [I91] | 62.3% | 645 nM | 94.2% | 
O=C(O)c1cccc2[nH]c(-c3ccc(-c4ccc(OC(F)(F)F)cc4)cc3)nc12 [I16] | 18% |  | 39.9% | 
Cc1cc(C(=O)O)c2nc(-c3c(F)c(F)c(-c4cc(F)cc(F)c4)c(F)c3F)[nH]c2c1 [I146] | 89.9% | 21 nM | 96.4% | 13 nM
Cc1cc(C(=O)O)c2nc(-c3cc(-c4ccccc4)cs3)[nH]c2c1 [I49] | 11% |  | 32.4% | 
Cc1cc(-c2nnc(O)o2)c2nc(-c3ccc(-c4ccccc4)cc3)[nH]c2c1 [I165] | 29.7% |  | 46% | 
Cc1cc(C(=O)O)c2[nH]c(-c3ccc(-c4ccc(CNC(C)C)cc4)cc3)nc2c1 [I160] | 19.6% |  | 57.4% | 
Cc1cc(C(=O)O)c2[nH]c(-c3ccc(Oc4ccccc4)cc3)nc2c1 [I67] | 29.3% | 3410 nM | 74.2% | 

Structure (SMILES) | inhibition at 1 µM [1] | IC50 [2] | inhibition at 10 µM [2] | EC50 [1]
Cc1cc(C(=O)O)c2nc(-c3ccc(-c4ccccc4)s3)[nH]c2c1 [I191] | 17.6% |  | 40.7% | 
Cc1cc(C#N)c2nc(-c3c(F)c(F)c(-c4ccccc4)c(F)c3F)[nH]c2c1 [I109] | 49% | 1650 nM | 87% | 
Cc1cc(C(=O)O)c2nc(C#Cc3ccc(OCc4ccccc4)cc3)[nH]c2c1 [I166] | 13.4% |  | 53.2% | 
Cc1cc(C(=O)O)c2[nH]c(-c3ccc(-c4ccc(OCCC5CCNCC5)cc4)cc3)nc2c1 [I95] | 14.3% | 6010 nM | 58.7% | 
O=C(O)c1cccc2[nH]c(-c3ccc(-c4ccc(O)cc4)cc3)nc12 [I177] | 40.5% |  | 51.3% | 
Cc1cc(C(=O)O)c2nc(-c3c(F)c(F)c(-c4ccc(OCc5ccccc5)cc4)c(F)c3F)[nH]c2c1 [I127] | 96% | 48 nM | 101% | 
Cc1cc(C(=O)O)c2[nH]c(-c3ccc(-c4ccccc4)cc3)cc2c1 [I187] | 15.3% |  | 32.1% | 
Cc1ccc(C)n1-c1ccc(-c2nc3cccc(C(=O)O)c3[nH]2)cc1 [I185] | 21.5% |  | 59.4% | 
Cc1cc(C(=O)O)c2[nH]c(-c3ccc(-c4ccc(OCCO)cc4)cc3)nc2c1 [I99] | 27.7% | 3100 nM | 71% | 
O=C(O)c1cccc2[nH]c(-c3ccc(-c4ccccc4)nc3)nc12 [I50] | 21% |  | 64.7% | 
Cc1cc(C(=O)NC2CCCC2)c2[nH]c(-c3c(F)c(F)c(-c4ccccc4)c(F)c3F)nc2c1 [I158] | 6.5% |  | 48.5% | 
O=C(O)c1cccc2[nH]c(-c3ccc(-c4cccc(OC(F)(F)F)c4)cc3)nc12 [I18] | 43.1% | 1260 nM | 89% | 
O=C(O)c1cccc2cc(-c3ccc(-c4ccccc4)cc3)[nH]c12 [I61] | 67.2% | 595 nM | 94.8% | 202 nM
O=C(O)c1cccc2[nH]c(-c3ccc(-c4ccc(OCc5ccncc5)cc4)cc3)nc12 [I183] | 23.5% |  | 63.9% | 
Cc1cc(C(=O)O)c2c(c1)nc(-c1c(F)c(F)c(-c3ccc(O)cc3)c(F)c1F)n2CCO [I94] | 82.5% | 78 nM | 89.7% | 
Cc1cc(C(=O)O)c2nc(-c3ccc(Oc4c(F)c(F)c(F)c(F)c4F)cc3)[nH]c2c1 [I72, 6-Methyl-2-(4-pentafluorophenyloxy-phenyl)-1H-benzoimidazole-4-carboxylic acid] | 9% |  | 38% | 
Cc1cc(C(=O)O)c2c(c1)nc(-c1ccc(-c3ccc(O)cc3)cc1)n2CCO [I97] | 37.6% | 2140 nM | 80% | 
O=C(O)c1cccc2nc(-c3ccc(-c4ccccn4)cc3)[nH]c12 [I73, 2-(4-Pyridin-2-yl-phenyl)-3H-benzoimidazole-4-carboxylic acid] | 13.6% |  | 29.6% | 
